Results as given in patent US20240315242A1, “Antibacterial Compound” (LG Chem, Ltd., priority 2021, published 2024).

Test system: E. coli (ATCC 25922)
Test: Evaluation of antibacterial property against E. coli (absorbance at 600 nm)
Format: cell-based, Escherichia coli
Settings: injection amount of compound 0.01 g in 25 mL nutrient broth with E. coli ATCC 25922 at 3000 CFU/mL; 16 hours at 35° C.; absorbance at 600 nm vs pure culture medium
Procedure: [formula] • in the equation, • As(Asample) represents absorbance of the culture medium containing the bacteriostatic substance at a wavelength of 600 nm, and • A0(Areference) represents absorbance of the pure culture medium without the bacteriostatic substance at a wavelength of 600 nm.
(1) Evaluation of Antibacterial Property Against E. coli
25 mL of a nutrient broth culture medium inoculated with E. coli (ATCC 25922) at 3000 CFU/mL was transferred to a 50 ml conical tube, and then the antibacterial compounds (bacteriostatic substances) prepared in Preparation Examples and Comparative Preparation Examples were injected in each amount described in Table 2 below, followed by sufficiently mixing. Thereafter, incubation was performed for 16 hours in a shaking incubator (Visiontech, VS-37SIF) maintained at 35° C.
The incubated solution was diluted to ⅕ using 1×PBS buffer solution, and absorbance at the wavelength of 600 nm was measured for the diluted solution using a UV-Vis Spectrophotometer (K Lab, Optizen POP). In addition, E. coli (ATCC 25922) was cultured in a pure culture medium without the antibacterial compound for 16 hours in a shaking incubator (VISION TECH, VS-37SIF) maintained at 35° C., which was prepared as a control, and absorbance at the wavelength of 600 nm was measured in the same manner as above.
Then, antibacterial rates (%) of E. coli (ATCC 25922) were calculated according to the following Equation 1, and the results are shown in Table 2 below.
[formula] • in the equation, • As(Asample) represents absorbance of the culture medium containing the bacteriostatic substance at a wavelength of 600 nm, and • A0(Areference) represents absorbance of the E. coli pure culture medium without the bacteriostatic substance at a wavelength of 600 nm.

Q: Which “Antibacterial rate (%)” value does the source give for C=C(C)C(=O)OCC[N+](C)(C)CCCCCCCCCC [Compound 1] here?
A: 95.3%

Q: How did the “Antibacterial rate (%)” value turn out when C=C(C)C(=O)OCC[N+](C)(C)CCCCCCCCCCCC [Compound 2] was run?
A: 98.1%

Q: Which “Antibacterial rate (%)” value does the source give for C=CC(=O)OCC[N+](C)(C)CCCCCCCCCCCC [Compound 3] here?
A: 97.3%

Q: With C=CC(=O)OCC[N+](C)(C)CCCCCCCCCC [Compound 5] as the molecule, how does the “Antibacterial rate (%)” value read?
A: 95.8%

Q: How did the “Antibacterial rate (%)” value turn out when C=CC(=O)OCC[N+](C)(C)CCCCCCCC [Compound 6] was run?
A: 70.6%

Q: For C=C(C)C(=O)OCC[N+](C)(C)CCCCCCCC [Compound B, reference compound], which “Antibacterial rate (%)” value is on record?
A: 69.2%

Q: Which “Antibacterial rate (%)” value does the source give for C=CC(=O)OCC[N+](C)(C)CCCCCCCC [Compound E, reference compound] here?
A: 62.3%
